Counter-ions that a name gives are not always drawn.
Columns and labels:
[1] = target: ATP-binding cassette sub-family C member 2 (Homo sapiens, UniProt Q92887); test: Inhibition of human MRP2 overexpressed in Sf9 cell membrane vesicles assessed as uptake of [3H]-estradiol-17beta-D-glucuronide in presence of ATP and GSH measured after 20 mins by membrane vesicle transport assay
[2] = target: ATP-binding cassette sub-family C member 3 (Homo sapiens, UniProt O15438); test: Inhibition of human MRP3 overexpressed in Sf9 insect cell membrane vesicles assessed as uptake of [3H]-estradiol-17beta-D-glucuronide in presence of ATP and GSH measured after 10 mins by membrane vesicle transport assay; format: ADME, cell-based
[3] = target: T1, ATP-binding cassette sub-family C member 4 (Homo sapiens, UniProt O15439); test: Inhibition of human MRP4 overexpressed in Sf9 cell membrane vesicles assessed as uptake of [3H]-estradiol-17beta-D-glucuronide in presence of ATP and GSH measured after 20 mins by membrane vesicle transport assay; format: ADME, cell-based
T1 sequence (O15439 whole entry): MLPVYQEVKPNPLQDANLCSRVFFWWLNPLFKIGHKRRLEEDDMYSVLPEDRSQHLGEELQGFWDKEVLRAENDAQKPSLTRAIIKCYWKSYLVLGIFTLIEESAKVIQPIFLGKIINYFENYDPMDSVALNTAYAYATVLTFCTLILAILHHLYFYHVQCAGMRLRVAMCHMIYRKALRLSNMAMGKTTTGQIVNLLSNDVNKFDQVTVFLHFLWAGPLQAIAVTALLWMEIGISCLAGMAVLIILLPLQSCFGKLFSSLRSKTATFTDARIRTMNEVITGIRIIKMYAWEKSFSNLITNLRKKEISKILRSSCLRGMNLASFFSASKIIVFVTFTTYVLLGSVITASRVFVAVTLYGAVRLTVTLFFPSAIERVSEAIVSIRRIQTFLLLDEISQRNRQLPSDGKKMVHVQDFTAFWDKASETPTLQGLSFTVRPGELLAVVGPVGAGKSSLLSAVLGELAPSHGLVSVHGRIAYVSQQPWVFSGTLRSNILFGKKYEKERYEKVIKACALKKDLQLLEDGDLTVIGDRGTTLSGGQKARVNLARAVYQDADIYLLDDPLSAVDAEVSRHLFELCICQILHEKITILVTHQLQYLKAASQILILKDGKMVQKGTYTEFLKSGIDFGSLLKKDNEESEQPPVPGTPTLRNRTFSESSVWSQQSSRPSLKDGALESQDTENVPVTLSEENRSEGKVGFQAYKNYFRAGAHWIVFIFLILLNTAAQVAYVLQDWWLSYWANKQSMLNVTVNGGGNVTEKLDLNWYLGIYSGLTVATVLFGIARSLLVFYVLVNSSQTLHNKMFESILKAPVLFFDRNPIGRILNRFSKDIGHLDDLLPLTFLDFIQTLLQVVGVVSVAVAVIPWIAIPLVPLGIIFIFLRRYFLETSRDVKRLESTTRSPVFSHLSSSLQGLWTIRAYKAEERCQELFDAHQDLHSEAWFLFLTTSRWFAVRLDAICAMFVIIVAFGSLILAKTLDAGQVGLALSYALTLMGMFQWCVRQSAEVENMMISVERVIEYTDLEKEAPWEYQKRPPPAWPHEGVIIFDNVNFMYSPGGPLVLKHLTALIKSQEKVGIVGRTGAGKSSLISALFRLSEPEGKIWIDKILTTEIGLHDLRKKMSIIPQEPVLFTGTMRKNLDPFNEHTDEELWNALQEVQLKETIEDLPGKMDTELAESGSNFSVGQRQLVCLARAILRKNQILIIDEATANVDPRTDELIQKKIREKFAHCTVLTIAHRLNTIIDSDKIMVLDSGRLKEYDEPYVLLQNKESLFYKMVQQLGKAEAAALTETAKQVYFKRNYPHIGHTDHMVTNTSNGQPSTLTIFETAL

Sequence of ATP-binding cassette sub-family C member 2 (Q92887 whole entry): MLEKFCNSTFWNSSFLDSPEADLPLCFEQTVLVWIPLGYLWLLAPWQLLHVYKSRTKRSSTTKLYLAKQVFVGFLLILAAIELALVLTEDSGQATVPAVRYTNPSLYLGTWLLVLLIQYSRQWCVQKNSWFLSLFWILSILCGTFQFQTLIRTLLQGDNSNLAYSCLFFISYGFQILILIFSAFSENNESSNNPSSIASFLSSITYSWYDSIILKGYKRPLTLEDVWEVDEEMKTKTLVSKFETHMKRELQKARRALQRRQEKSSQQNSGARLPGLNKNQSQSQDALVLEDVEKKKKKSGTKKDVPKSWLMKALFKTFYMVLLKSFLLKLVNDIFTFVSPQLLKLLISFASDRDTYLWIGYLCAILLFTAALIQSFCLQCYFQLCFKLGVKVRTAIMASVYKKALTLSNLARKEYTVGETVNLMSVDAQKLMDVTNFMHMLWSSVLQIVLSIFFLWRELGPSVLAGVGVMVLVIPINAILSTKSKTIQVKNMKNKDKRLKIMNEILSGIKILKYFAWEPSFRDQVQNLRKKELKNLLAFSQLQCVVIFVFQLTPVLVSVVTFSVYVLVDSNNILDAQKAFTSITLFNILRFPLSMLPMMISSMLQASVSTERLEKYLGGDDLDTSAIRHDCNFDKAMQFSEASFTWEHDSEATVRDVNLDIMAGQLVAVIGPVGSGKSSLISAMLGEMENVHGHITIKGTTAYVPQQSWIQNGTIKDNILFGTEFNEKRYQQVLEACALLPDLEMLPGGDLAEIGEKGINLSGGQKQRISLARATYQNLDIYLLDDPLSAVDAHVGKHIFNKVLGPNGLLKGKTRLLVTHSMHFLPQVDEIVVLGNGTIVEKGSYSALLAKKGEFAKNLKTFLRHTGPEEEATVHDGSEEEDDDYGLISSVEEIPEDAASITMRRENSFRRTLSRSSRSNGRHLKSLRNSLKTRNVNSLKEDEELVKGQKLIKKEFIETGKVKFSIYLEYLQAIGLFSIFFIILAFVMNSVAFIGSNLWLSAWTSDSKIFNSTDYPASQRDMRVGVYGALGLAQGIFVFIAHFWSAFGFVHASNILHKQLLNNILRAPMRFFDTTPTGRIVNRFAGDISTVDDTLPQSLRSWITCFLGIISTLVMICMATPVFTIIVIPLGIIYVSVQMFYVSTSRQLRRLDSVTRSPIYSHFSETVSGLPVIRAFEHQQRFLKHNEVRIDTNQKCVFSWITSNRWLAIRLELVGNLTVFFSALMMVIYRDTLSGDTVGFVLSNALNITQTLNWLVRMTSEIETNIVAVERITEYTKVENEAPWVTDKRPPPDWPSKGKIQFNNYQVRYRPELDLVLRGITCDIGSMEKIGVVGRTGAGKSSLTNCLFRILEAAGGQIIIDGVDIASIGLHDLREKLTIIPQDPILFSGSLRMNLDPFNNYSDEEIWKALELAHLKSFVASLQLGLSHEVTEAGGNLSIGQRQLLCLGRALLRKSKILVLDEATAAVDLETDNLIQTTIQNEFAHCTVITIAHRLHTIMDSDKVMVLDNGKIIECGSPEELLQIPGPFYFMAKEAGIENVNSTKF
Sequence of ATP-binding cassette sub-family C member 3 (O15438 whole entry): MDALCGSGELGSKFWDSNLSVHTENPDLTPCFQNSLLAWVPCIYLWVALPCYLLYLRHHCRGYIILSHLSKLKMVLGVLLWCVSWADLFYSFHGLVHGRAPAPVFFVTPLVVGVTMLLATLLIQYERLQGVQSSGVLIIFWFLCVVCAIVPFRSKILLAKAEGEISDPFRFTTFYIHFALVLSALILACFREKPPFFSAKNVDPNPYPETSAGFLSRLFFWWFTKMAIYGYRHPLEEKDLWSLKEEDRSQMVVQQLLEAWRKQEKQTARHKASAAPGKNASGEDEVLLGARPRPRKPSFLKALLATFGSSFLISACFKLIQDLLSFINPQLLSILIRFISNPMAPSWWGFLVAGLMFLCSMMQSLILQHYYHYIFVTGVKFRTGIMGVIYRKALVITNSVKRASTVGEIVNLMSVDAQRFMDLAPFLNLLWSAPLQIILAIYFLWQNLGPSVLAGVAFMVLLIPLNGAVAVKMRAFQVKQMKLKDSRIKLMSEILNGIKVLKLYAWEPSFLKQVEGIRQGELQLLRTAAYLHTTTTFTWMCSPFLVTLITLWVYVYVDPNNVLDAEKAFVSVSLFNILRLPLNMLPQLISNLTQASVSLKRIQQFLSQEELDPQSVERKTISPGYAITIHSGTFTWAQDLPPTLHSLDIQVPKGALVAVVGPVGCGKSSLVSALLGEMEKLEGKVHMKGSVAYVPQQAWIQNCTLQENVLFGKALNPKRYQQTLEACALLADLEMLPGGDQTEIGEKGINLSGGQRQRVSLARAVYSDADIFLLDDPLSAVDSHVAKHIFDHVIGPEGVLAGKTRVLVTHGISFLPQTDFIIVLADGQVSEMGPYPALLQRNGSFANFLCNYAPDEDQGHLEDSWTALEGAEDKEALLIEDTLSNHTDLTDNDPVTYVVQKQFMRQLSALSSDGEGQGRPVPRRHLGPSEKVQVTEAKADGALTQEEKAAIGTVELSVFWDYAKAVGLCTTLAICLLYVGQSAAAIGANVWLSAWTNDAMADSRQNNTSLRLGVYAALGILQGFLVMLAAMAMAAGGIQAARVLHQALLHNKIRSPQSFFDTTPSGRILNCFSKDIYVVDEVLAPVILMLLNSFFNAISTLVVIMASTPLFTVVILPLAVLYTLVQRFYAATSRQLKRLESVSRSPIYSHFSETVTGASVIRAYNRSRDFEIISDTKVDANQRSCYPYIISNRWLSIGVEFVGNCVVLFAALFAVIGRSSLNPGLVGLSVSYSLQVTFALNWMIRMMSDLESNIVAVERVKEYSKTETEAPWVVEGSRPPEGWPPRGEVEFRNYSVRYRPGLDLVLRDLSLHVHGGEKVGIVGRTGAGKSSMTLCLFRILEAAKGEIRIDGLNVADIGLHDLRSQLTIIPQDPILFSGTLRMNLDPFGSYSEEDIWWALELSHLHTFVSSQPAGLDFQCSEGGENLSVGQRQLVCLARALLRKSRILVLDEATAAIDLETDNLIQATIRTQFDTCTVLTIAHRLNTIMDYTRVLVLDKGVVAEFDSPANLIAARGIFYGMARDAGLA

| SMILES | IC50 [1] | IC50 [2] | IC50 [3] |
| --- | --- | --- | --- |
| CN(C)CCCN1c2ccccc2CCc2ccccc21 [IMIPRAMINE] | > 133 µM | > 133 µM | > 133 µM |
| CC(C)[C@@H]1NC(=O)[C@H](C)OC(=O)[C@@H](C(C)C)NC(=O)[C@@H](C(C)C)OC(=O)[C@H](C(C)C)NC(=O)[C@H](C)OC(=O)[C@@H](C(C)C)NC(=O)[C@@H](C(C)C)OC(=O)[C@H](C(C)C)NC(=O)[C@H](C)OC(=O)[C@@H](C(C)C)NC(=O)[C@@H](C(C)C)OC1=O [VALINOMYCIN] | > 133 µM | > 133 µM | > 133 µM |
| CC1=C(C(=O)O)N2C(=O)[C@@H](NC(=O)[C@H](N)c3ccc(O)cc3)[C@H]2SC1 [CEFADROXIL] | > 133 µM | > 133 µM | > 133 µM |
| O=C(N[C@H](CO)[C@H](O)c1ccc([N+](=O)[O-])cc1)C(Cl)Cl [CHLORAMPHENICOL] | – | > 133 µM | > 133 µM |
| C[C@@H](c1ncncc1F)[C@](O)(Cn1cncn1)c1ccc(F)cc1F [VORICONAZOLE] | > 133 µM | > 133 µM | > 133 µM |
| O=C1CCc2ccc(OCCCCN3CCN(c4cccc(Cl)c4Cl)CC3)cc2N1 [ARIPIPRAZOLE] | > 133 µM | > 133 µM | > 133 µM |
| C[C@]12CC[C@H]3[C@@H](CCC4=CC(=O)CC[C@@]43C)[C@@H]1CC[C@@H]2O [TESTOSTERONE] | > 133 µM | > 133 µM | > 133 µM |
| CC(=O)Nc1nnc(S(N)(=O)=O)s1 [ACETAZOLAMIDE] | > 133 µM | > 133 µM | > 133 µM |
| CN(C)C(=N)N=C(N)N [METFORMIN] | > 133 µM | > 133 µM | > 133 µM |
| CC(C)NCC(O)COc1cccc2ccccc12 (configuration not stated) [PROPRANOLOL] | > 133 µM | > 133 µM | > 133 µM |
| CN[C@@H]1C[C@H]2O[C@@](C)([C@@H]1OC)n1c3ccccc3c3c4c(c5c6ccccc6n2c5c31)C(=O)NC4 [STAUROSPORINE] | > 133 µM | > 133 µM | 37.9 µM |
| COc1cc([C@@H]2c3cc4c(cc3[C@@H](O[C@@H]3O[C@@H]5CO[C@@H](C)O[C@H]5[C@H](O)[C@H]3O)[C@H]3COC(=O)[C@H]23)OCO4)cc(OC)c1O [ETOPOSIDE] | > 133 µM | > 133 µM | > 133 µM |
| CC[C@H]1OC(=O)[C@H](C)[C@@H](O[C@H]2C[C@@](C)(OC)[C@@H](O)[C@H](C)O2)[C@H](C)[C@@H](O[C@@H]2O[C@H](C)C[C@H](N(C)C)[C@H]2O)[C@](C)(O)C[C@@H](C)C(=O)[C@H](C)[C@@H](O)[C@]1(C)O [ERYTHROMYCIN] | > 133 µM | > 133 µM | > 133 µM |
| O=c1[nH]cnc2c1ncn2[C@H]1CC[C@@H](CO)O1 [DIDANOSINE] | > 133 µM | > 133 µM | > 133 µM |
| CN(C)CCC(c1ccc(Br)cc1)c1ccccn1 (configuration not stated) [BROMPHENIRAMINE MALEATE] | > 133 µM | > 133 µM | > 133 µM |
| COC(=O)Nc1nc2ccc(C(=O)c3ccccc3)cc2[nH]1 [MEBENDAZOLE] | > 133 µM | > 133 µM | 15.5 µM |
| CCN(CC)CCCC(C)Nc1ccnc2cc(Cl)ccc12 (configuration not stated) [CHLOROQUINE] | > 133 µM | > 133 µM | 104 µM |
| COc1ccc(CCN(C)CCCC(C#N)(c2ccc(OC)c(OC)c2)C(C)C)cc1OC (configuration not stated) | > 133 µM | > 133 µM | – |
| Cn1cnc([N+](=O)[O-])c1Sc1ncnc2nc[nH]c12 [AZATHIOPRINE] | > 133 µM | > 133 µM | > 133 µM |
| CC[C@@H](CO)NCCN[C@@H](CC)CO [ETHAMBUTOL HYDROCHLORIDE] | > 133 µM | 88.2 µM | > 133 µM |
| OCCOCCN1CCN(C2=Nc3ccccc3Sc3ccccc32)CC1 [QUETIAPINE FUMARATE] | > 133 µM | > 133 µM | > 133 µM |
| Nc1ccc(S(=O)(=O)c2ccc(N)cc2)cc1 [DAPSONE] | > 133 µM | > 133 µM | > 133 µM |
| Cc1ncc([N+](=O)[O-])n1CCO [METRONIDAZOLE] | > 133 µM | > 133 µM | > 133 µM |
